Data as given in patent US6409809B1 (priority 1999, dated 2002).

Experiment: QUV accelerated weathering exposure test of painted aluminum panels (colour fading, CIE La*b*)
Format: physicochemical
Conditions: Study I, 48 weeks; 6 hr UV/6 hr condensation cycles; mildewcide level 2.0 (% as is); phthalocyanine blue acrylic paint
Experimental: An exposure test was conducted in two studies to determine the effect of weathering (UV exposure and/or condensation) on samples of panels with paints containing chlorothalonil, tetraconazole, and chlorothalonil/tetraconazole blend additives, respectively. The panels were aluminum having a 3003 alloy mill finish. One coating (6 mils thick when wet) of the selected paint was applied to each panel and allowed to air dry for 7 days at ambient temperature. Simulated weathering was performed by exposure of the panels to a QUV accelerated weathering tester providing UVA radiation at a power consumption of 1200 Watts (110 volts, 60 Hz). The exposure was conducted in alternating and repeating 6-hour cycles, one 6-hour cycle being an ultraviolet radiation exposure cycle (conducted at 80° C.), and the other cycle being a condensation cycle wherein the panels are exposed to moisture (conducted at 60°). The results are set forth below in Table I. CIE La*b* System describes a color space wherein ‘a’ is the green(−)/[…] axis. ‘L’ is lightness; ‘C’ is chroma or saturation.

FC(F)C(F)(F)OCC(Cn1cncn1)c1ccc(Cl)cc1Cl (centres unmarked) [TCZ, Tetraconazole]
DC vs. Blank: 1.02 | DL vs. Blank: −2.20
